This note sets out measurements from patent US20240199692A1 (priority 2019, published 2024).

Read-outs that look alike come from different tables or passages of the source. *1 amine or outer side, *2 acyl side, *3 side chain or, on linkers, in order; H or OH if unused. Where a SMILES comes first, the peptide text is derived from it. Bridges are numbered along the chain shown (N, C = ends). [ ]: non-standard residue; d: D form. The star is where a group is joined. Phenylsulfonyl(4-anisamido) = COc1ccc(C(=O)Nc2ccc(S(=O)(=O)*)cc2)cc1; Benzoyl(4-(4-EtNHCO-PhO)) = CCNC(=O)c1ccc(Oc2ccc(C(=O)*)cc2)cc1; Benzoyl(4-O-C6H4-4-CONHMe) = CNC(=O)c1ccc(Oc2ccc(C(=O)*)cc2)cc1; Benzenesulfonyl(4-OPh) = O=S(=O)(c1ccc(Oc2ccccc2)cc1)*; X14 = CN(C)C(=O)c1ccc(C(=O)Nc2ccc(S(=O)(=O)*)cc2)cc1; X8 = CCCOc1ccc(C(=O)Nc2ccc(S(=O)(=O)*)cc2)cc1; X17 = CC(=O)Nc1ccc(-c2ccc(S(=O)(=O)*)cc2)cc1; X10 = NC(=O)c1ccc(-c2ccc(S(=O)(=O)*)cc2)cc1; Benzoyl(4-OPh) = O=C(c1ccc(Oc2ccccc2)cc1)*; X9 = O=C(NCCCO)c1ccc(Oc2ccc(C(=O)*)cc2)cc1; d(γGlu) = O=C(O)[C@@H](CCC(=O)[*:2])N[*:1]; d(βAsp) = O=C(O)[C@@H](CC(=O)[*:2])N[*:1]; X7 = O=S(=O)(c1ccc(-c2ccc(OCCO)cc2)cc1)*; NMeY = CN[C@@H](Cc1ccc(O)cc1)C(=O)O; NMeI = CC[C@H](C)[C@H](NC)C(=O)O; NMeE = CN[C@@H](CCC(=O)O)C(=O)O; NMeN = CN[C@@H](CC(N)=O)C(=O)O; β3hP = O=C(O)C[C@@H]1CCCN1; NMeA = CN[C@@H](C)C(=O)O; Dab = NCC[C@H](N)C(=O)O; Dap = NC[C@H](N)C(=O)O; Aib = CC(C)(N)C(=O)O; Ava = NCCCCC(=O)O; GABA = NCCCC(=O)O; βAla = NCCC(=O)O

This test concerns the target T1, MMP2 (Homo sapiens, UniProt P08253).
T1 sequence (P08253 110-660): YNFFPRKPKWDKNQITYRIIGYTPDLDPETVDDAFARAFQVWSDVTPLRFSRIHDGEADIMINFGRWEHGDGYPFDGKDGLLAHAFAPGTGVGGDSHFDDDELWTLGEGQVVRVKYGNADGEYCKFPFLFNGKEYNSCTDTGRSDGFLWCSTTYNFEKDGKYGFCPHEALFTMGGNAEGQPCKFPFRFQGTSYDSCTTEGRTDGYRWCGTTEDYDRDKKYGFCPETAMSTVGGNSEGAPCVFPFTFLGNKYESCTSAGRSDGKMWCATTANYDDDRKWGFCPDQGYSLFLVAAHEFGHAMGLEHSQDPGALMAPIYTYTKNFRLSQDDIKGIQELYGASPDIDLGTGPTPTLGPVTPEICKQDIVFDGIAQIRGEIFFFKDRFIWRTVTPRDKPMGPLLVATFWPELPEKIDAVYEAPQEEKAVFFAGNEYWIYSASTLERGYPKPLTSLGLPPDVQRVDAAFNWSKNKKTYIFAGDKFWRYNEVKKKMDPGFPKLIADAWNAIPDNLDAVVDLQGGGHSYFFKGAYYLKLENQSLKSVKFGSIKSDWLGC
Briefly: Inhibitory effects on human MMP2 (Method 1), enzyme assay with MOCAc-Pro-Leu-Gly-Leu-A2pr(Dnp)-Ala-Arg-NH2 substrate, 96-well. It is filed as biochemical. The settings on record: read-out: Human MMP2, IC50. As for the experimental part: In a reaction solution [50 mmol/L Tris-HCl (pH 7.5), 150 mmol/L NaCl, 10 mmol/L CaCl2, 0.05% Brij L23], 100 μg/mL human recombinant MMP2 enzyme and 1 mmol/L 4-Aminophenylmercuric acetate were mixed together, and reacted at 37° C. for 60 minutes. The human MMP2 activated through the reaction was poured into a 96-well microplate to reach a final concentration of 0.7 or 7 ng/mL.

Where [1] appears, read: Test Example No. 1-1 (Method 1, 96-well microplate).

On to `CNC(=O)c1ccc(Oc2ccc(C(=O)NCCCCC(=O)N[C@@H](CCCCN)C(=O)N[C@@H](CC(=O)O)C(=O)N[C@@H](CCN)C(=O)N[C@@H](CC(C)C)C(=O)N(C)[C@@H](CCC(=O)O)C(=O)N3CCC[C@H]3CC(N)=O)cc2)cc1` [Compound 184] ({Benzoyl(4-O-C6H4-4-CONHMe)-Ava}-KD[Dab]L[NMeE][β3hP]-NH2; N-terminus assumed), for which the IC50 under setting [1] was 0.61 nM.

In the case of `CC[C@H](C)[C@@H](C(=O)N1CCC[C@H]1C(N)=O)N(C)C(=O)[C@H](CC(C)C)NC(=O)[C@H](C)NC(=O)[C@H](CC(=O)O)NC(=O)[C@H](CCC(N)=O)NC(=O)CCCNC(=O)c1ccc(Oc2ccccc2)cc1` [Compound 128] ({Benzoyl(4-OPh)-GABA}-QDAL[NMeI]P-NH2; N-terminus assumed), under setting [1], the IC50 worked out at 0.15 nM.

As to `CC[C@H](C)[C@@H](C(=O)N1CCC[C@H]1C(N)=O)N(C)C(=O)[C@H](CC(C)C)NC(=O)[C@H](C)NC(=O)[C@H](CC(=O)O)NC(=O)[C@H](Cc1ccc(O)cc1)N(C)C(=O)CCCNC(=O)c1ccc(Oc2ccccc2)cc1` [Compound 129] ({Benzoyl(4-OPh)-GABA}-[NMeY]DAL[NMeI]P-NH2), under setting [1], the IC50 was determined as 0.46 nM.

On to `COc1ccc(C(=O)Nc2ccc(S(=O)(=O)N[C@H](CCC(=O)N[C@@H](CCN)C(=O)N[C@@H](CC(C)C)C(=O)N(C)[C@@H](CCC(=O)O)C(=O)N3CCC[C@H]3CC(N)=O)C(=O)O)cc2)cc1` [Compound 697] ({Phenylsulfonyl(4-anisamido)-d(γGlu)}-[Dab]L[NMeE][β3hP]-NH2; N-terminus assumed), for which, under setting [1], the IC50 came to 0.28 nM.

`CC(C)C[C@H](NC(=O)[C@H](CCN)NC(=O)[C@H](CC(=O)O)NC(=O)[C@H](CC(N)=O)N(C)C(=O)CCCNC(=O)c1ccc(Oc2ccccc2)cc1)C(=O)N(C)[C@@H](CCC(=O)O)C(=O)N1CCC[C@H]1C(N)=O` [Compound 113] ({Benzoyl(4-OPh)-GABA}-[NMeN]D[Dab]L[NMeE]P-NH2; N-terminus assumed): the IC50 under setting [1] turned out to be 2.2 nM.

On to `CC[C@H](C)[C@@H](C(=O)N1CCC[C@H]1C(N)=O)N(C)C(=O)[C@H](CC(C)C)NC(=O)[C@H](C)NC(=O)[C@H](CC(=O)O)NC(=O)[C@@H](CC(N)=O)NC(=O)CCCNC(=O)c1ccc(Oc2ccccc2)cc1` [Compound 114] ({Benzoyl(4-OPh)-GABA}-[dN]DAL[NMeI]P-NH2; N-terminus assumed), for which, under setting [1], the IC50 worked out at 0.072 nM.

On to `CC[C@H](C)[C@@H](C(=O)N1CCC[C@H]1CC(N)=O)N(C)C(=O)[C@H](CC(C)C)NC(=O)[C@H](C)NC(=O)C[C@@H](NS(=O)(=O)c1ccc(-c2ccc(C(N)=O)cc2)cc1)C(=O)O` [Compound 635] ({X10-d(βAsp)}-AL[NMeI][β3hP]-NH2; N-terminus assumed), for which, under setting [1], the IC50 amounted to 0.83 nM.

With `CCCOc1ccc(C(=O)Nc2ccc(S(=O)(=O)N[C@H](CCC(=O)N[C@@H](CCN)C(=O)N[C@@H](CC(C)C)C(=O)N(C)[C@H](C(=O)N3CCC[C@H]3CC(N)=O)[C@@H](C)CC)C(=O)O)cc2)cc1` [Compound 696] ({X8-d(γGlu)}-[Dab]L[NMeI][β3hP]-NH2; N-terminus assumed), the 50% inhibitory concentration (IC50) under setting [1] stood at 0.22 nM.

With `CC(C)C[C@H](NC(=O)[C@H](CCN)NC(=O)[C@H](CC(=O)O)NC(=O)[C@H](CC(N)=O)NC(=O)CCCCNC(=O)c1ccc(Oc2ccc(C(=O)NCCCO)cc2)cc1)C(=O)N(C)[C@@H](CCC(=O)O)C(=O)N1CCC[C@H]1CC(N)=O` [Compound 182] ({X9-Ava}-ND[Dab]L[NMeE][β3hP]-NH2; N-terminus assumed), the IC50 under setting [1] came out at 0.49 nM.

Take `CC[C@H](C)[C@@H](C(=O)N1CCC[C@H]1CC(N)=O)N(C)C(=O)[C@H](CC(C)C)NC(=O)[C@H](CCN)NC(=O)[C@H](CC(=O)O)NC(=O)[C@H](CCCNC(=N)N)NC(=O)CCCCNC(=O)c1ccc(Oc2ccc(C(=O)NC)cc2)cc1` [Compound 189] ({Benzoyl(4-O-C6H4-4-CONHMe)-Ava}-RD[Dab]L[NMeI][β3hP]-NH2; N-terminus assumed): under setting [1], the IC50 amounted to 0.86 nM.

`CC[C@H](C)[C@@H](C(=O)N1CCC[C@H]1CC(N)=O)N(C)C(=O)[C@@H]1CCCCNC(=O)CCNC(=O)CC[C@H](NC(=O)CCCNS(=O)(=O)c2ccc(Oc3ccccc3)cc2)C(=O)N[C@@H](CC(=O)O)C(=O)N[C@@H](CCN)C(=O)N1` [Compound 894] ({Benzenesulfonyl(4-OPh)-GABA}-ED[Dab]K[NMeI][β3hP]-NH2; linker 1-4 via βAla (inferred); N-terminus assumed): the IC50 (Test Example No. 1-1 (Method 1, 96-well)) was determined as 1.1 nM.

For the compound `CCNC(=O)c1ccc(Oc2ccc(C(=O)NCCCCC(=O)N[C@@H](CCCNC(=N)N)C(=O)N[C@@H](CC(=O)O)C(=O)N[C@@H](CCN)C(=O)N[C@@H](CC(C)C)C(=O)N(C)[C@@H](CCC(=O)O)C(=O)N3CCC[C@H]3CC(N)=O)cc2)cc1` [Compound 196] ({Benzoyl(4-(4-EtNHCO-PhO))-Ava}-RD[Dab]L[NMeE][β3hP]-NH2; N-terminus assumed), under setting [1], the IC50 is 1.7 nM.

Turning to `CC[C@H](C)[C@@H](C(=O)N1CCC[C@H]1CC(N)=O)N(C)C(=O)[C@H](CC(C)C)NC(=O)[C@H](CCN)NC(=O)CC[C@@H](NS(=O)(=O)c1ccc(NC(=O)c2ccc(OC)cc2)cc1)C(=O)O` [Compound 695] ({Phenylsulfonyl(4-anisamido)-d(γGlu)}-[Dab]L[NMeI][β3hP]-NH2; N-terminus assumed), the IC50 under setting [1] was determined as 0.53 nM.

On to `CCNC(=O)c1ccc(Oc2ccc(C(=O)NCCCCC(=O)N[C@@H](CCCCN)C(=O)N[C@@H](CC(=O)O)C(=O)N[C@@H](CCN)C(=O)N[C@@H](CC(C)C)C(=O)N(C)[C@H](C(=O)N3CCC[C@H]3CC(N)=O)[C@@H](C)CC)cc2)cc1` [Compound 193] ({Benzoyl(4-(4-EtNHCO-PhO))-Ava}-KD[Dab]L[NMeI][β3hP]-NH2; N-terminus assumed), for which the half-inhibitory concentration (IC50) under setting [1] is 1.7 nM.

Turning to `CC[C@H](C)[C@@H](C(=O)NC(C)(C)C(N)=O)N(C)C(=O)[C@H](CC(C)C)NC(=O)[C@H](C)NC(=O)[C@H](CC(=O)O)NC(=O)[C@H](CC(N)=O)N(C)C(=O)CCCNC(=O)c1ccc(Oc2ccccc2)cc1` [Compound 98] ({Benzoyl(4-OPh)-GABA}-[NMeN]DAL[NMeI][Aib]-NH2; N-terminus assumed), the half-maximal inhibitory concentration (IC50) under setting [1] came out at 0.27 nM.

For the compound `CC(C)C[C@H](NC(=O)[C@H](CCN)NC(=O)C[C@@H](NS(=O)(=O)c1ccc(-c2ccc(OCCO)cc2)cc1)C(=O)O)C(=O)N(C)[C@@H](CCC(=O)O)C(=O)N1CCC[C@H]1CC(N)=O` [Compound 640] ({X7-d(βAsp)}-[Dab]L[NMeE][β3hP]-NH2; N-terminus assumed), the IC50 under setting [1] worked out at 0.38 nM.

With `CC[C@H](C)[C@@H](C(=O)N1CCC[C@H]1C(N)=O)N(C)C(=O)[C@H](CC(C)C)NC(=O)[C@H](C)NC(=O)[C@H](CC(=O)O)NC(=O)[C@H](C)N(C)C(=O)CCCNC(=O)c1ccc(Oc2ccccc2)cc1` [Compound 92] ({Benzoyl(4-OPh)-GABA}-[NMeA]DAL[NMeI]P-NH2; N-terminus assumed), the IC50 under setting [1] worked out at 0.31 nM.

As to `CC[C@H](C)[C@@H](C(=O)N1CCC[C@H]1CC(N)=O)N(C)C(=O)[C@H](CC(C)C)NC(=O)[C@H](C)NC(=O)C[C@@H](NS(=O)(=O)c1ccc(-c2ccc(NC(C)=O)cc2)cc1)C(=O)O` [Compound 636] ({X17-d(βAsp)}-AL[NMeI][β3hP]-NH2; N-terminus assumed), the half-inhibitory concentration (IC50) under setting [1] was determined as 0.94 nM.

As to `CC(C)C[C@H](NC(=O)[C@H](CN)NC(=O)C[C@@H](NS(=O)(=O)c1ccc(NC(=O)c2ccc(C(=O)N(C)C)cc2)cc1)C(=O)O)C(=O)N(C)[C@@H](CCC(=O)O)C(=O)N1CCC[C@H]1CC(N)=O` [Compound 679] ({X14-d(βAsp)}-[Dap]L[NMeE][β3hP]-NH2; N-terminus assumed), the half-maximal inhibitory concentration (IC50) under setting [1] was 1.5 nM.
